Read-outs that look alike come from different tables or passages of the source.
System: PGE2 production
Experiment: Inhibition of UVB-induced PGE2 production in cultured human keratinocytes (PGE2 assay kit, calibrated with MTT absorbance)
Format: cell-based
Description: Human keratinocytes were seeded at a density of 1×10^5 cells/well to 6-well plates containing 2 mL of KGM(keratinocyte growth medium, Clonetics, San Diego, Calif., USA) per well and cultured overnight. Then, the medium was replaced with KBM(keratinocyte basal medium) supplemented with 0.1% BSA(bovine serum albumin) and the cells were cultured for an additional 24 hours. Subsequently, the cells were pre-treated for an additional 24 hours with 2 mL of the same medium containing 10 μg/ml of each of the dipeptides listed in Table 1. […] The pre-treated medium was transferred to new 24 well plates and 1 mL of DPBS(Dulbecco's phosphate buffered saline) was added to the cells in each well. During UV irradiation, the transferred medium was stored in a cell incubator. […] At this time, the control was covered with aluminum foil. After the removal of DPBS, the transferred medium was returned to each well. The cells were further cultured for 24 hours, after which 1 mL of the medium was transferred to microcentrifuge tubes. […] The supernatants were then removed and the formazan crystals were solubilized in 1 ml of DMSO(dimethylsulfoxide). One hundred μL of the solution was transferred to each well of 96-well plates and an optical density was determined at 540 nm using an ELISA(enzyme-linked immunosorbent assay) reader. […] The concentration of PGE2 was determined using a PGE2 Assay Kit(KGE004, R&D Systems, Inc., Minneapolis, Minn., USA) according to the manufacturer's instruction. […] After removal of the reaction, the wells were washed five times with 400 μL of wash buffer. To each well was added 200 μL of a substrate solution, followed by incubation for 20 30 min. The reaction was terminated with 50 μL of a stop solution per well before determining absorbance at 450 nm on an ELISA reader. The PGE2 concentration of each sample was calculated from the standard graph and calibrated with the absorbance obtained in the MTT assay to determine their inhibitory activity against PGE2 production.

[1] = 10 μg/ml dipeptide, 24 h pre-treatment, human keratinocytes, UVB 100 mJ/cm^2, medium assayed 24 h after irradiation, […], 10% or more regarded as effective
[2] = 10 μg/ml dipeptide, 24 h pre-treatment, human keratinocytes, UVB 100 mJ/cm^2, medium assayed 24 h after irradiation, 0% or lower expressed as zero, 10% or more regarded as effective

## alanine-tyrosine [AY]
  % Inhibition against PGE2 Production: 31.8%

## serine-lysine [SK]
[1]
  % Inhibition against PGE2 Production: 44.9%

## histidine-alanine [HA]
[2]
  % Inhibition against PGE2 Production: 44.1%

## aspartic acid-threonine [DT]
[1]
  % Inhibition against PGE2 Production: 95.8%

## aspartic acid-isoleucine [DI]
[1]
  % Inhibition against PGE2 Production: 25.9%

## isoleucine-threonine [IT]
[1]
  % Inhibition against PGE2 Production: 18.9%

## aspartic acid-aspartic acid [DD]
[1]
  % Inhibition against PGE2 Production: 64.2%

## proline-tyrosine [PY]
  % Inhibition against PGE2 Production: 24.8%

## histidine-tyrosine [HY]
  % Inhibition against PGE2 Production: 77.9%

## glutamine-aspartic acid [QD]
[1]
  % Inhibition against PGE2 Production: 66.0%

## threonine-arginine [TR]
[1]
  % Inhibition against PGE2 Production: 53.0%

## phenylalanine-aspartic acid [FD]
[1]
  % Inhibition against PGE2 Production: 13.7%

## serine-tyrosine [SY]
  % Inhibition against PGE2 Production: 91.5%

## tryptophan-arginine [WR]
[1]
  % Inhibition against PGE2 Production: 83.7%

## phenylalanine-histidine [FH]
[2]
  % Inhibition against PGE2 Production: 39.2%

## NCC(=O)O.O=C(O)[C@@H]1CCCN1 [PG, proline-glycine]
  % Inhibition against PGE2 Production: 80.7%

## arginine-threonine [RT]
[1]
  % Inhibition against PGE2 Production: 27.5%

## asparagine-methionine [NM]
  % Inhibition against PGE2 Production: 89.5%

## tryptophan-valine [WV]
[1]
  % Inhibition against PGE2 Production: 79.6%

## aspartic acid-histidine [DH]
  % Inhibition against PGE2 Production: 59.2%

## isoleucine-lysine [IK]
[1]
  % Inhibition against PGE2 Production: 71.3%

## isoleucine-valine [IV]
[1]
  % Inhibition against PGE2 Production: 70.9%

## tryptophan-serine [WS]
[1]
  % Inhibition against PGE2 Production: 89.0%

## threonine-serine [TS]
[1]
  % Inhibition against PGE2 Production: 55.7%

## histidine-histidine [HH]
[2]
  % Inhibition against PGE2 Production: 79.8%

## valine-alanine
[2]
  % Inhibition against PGE2 Production: 64.7%

## glutamic acid-methionine [EM]
  % Inhibition against PGE2 Production: 58.4%

## lysine-tyrosine [KY]
  % Inhibition against PGE2 Production: 72.6%

## tryptophan-aspartic acid [WD]
[1]
  % Inhibition against PGE2 Production: 85.9%

## serine-asparagine [SN]
  % Inhibition against PGE2 Production: 49.9%

## methionine-aspartic acid [MD]
  % Inhibition against PGE2 Production: 64.8%

## valine-aspartic acid [VD]
[1]
  % Inhibition against PGE2 Production: 45.3%

## glycine-glycine [GG]
  % Inhibition against PGE2 Production: 26.1%

## tryptophan-cysteine [WC]
[1]
  % Inhibition against PGE2 Production: 18.3%

## alanine-aspartic acid [AD]
[1]
  % Inhibition against PGE2 Production: 58.3%

## asparagine-threonine [NT]
  % Inhibition against PGE2 Production: 57.2%

## alanine-isoleucine [AI]
[1]
  % Inhibition against PGE2 Production: 60.1%

## aspartic acid-asparagine [DN]
  % Inhibition against PGE2 Production: 85.6%

## tryptophan-glutamine [WQ]
[1]
  % Inhibition against PGE2 Production: 88.7%

## serine-glutamine [SQ]
[1]
  % Inhibition against PGE2 Production: 58.8%

## tyrosine-methionine [YM]
  % Inhibition against PGE2 Production: 89.6%

## arginine-arginine [RR]
[1]
  % Inhibition against PGE2 Production: 90.5%

## phenylalanine-lysine [FK]
[1]
  % Inhibition against PGE2 Production: 73.3%

## serine-aspartic acid [SD]
[1]
  % Inhibition against PGE2 Production: 58.4%

## arginine-cysteine [RC]
[1]
  % Inhibition against PGE2 Production: 95.1%

## serine-serine [SS]
[1]
  % Inhibition against PGE2 Production: 93.8%

## aspartic acid-glutamine [DQ]
[1]
  % Inhibition against PGE2 Production: 52.4%

## arginine-aspartic acid [RD]
[1]
  % Inhibition against PGE2 Production: 24.1%

## tyrosine-leucine [YL]
  % Inhibition against PGE2 Production: 24.7%

## NCC(=O)O.NCCCC[C@H](N)C(=O)O [GK, glycine-lysine]
  % Inhibition against PGE2 Production: 87.0%

## valine-glutamic acid [VE]
[1]
  % Inhibition against PGE2 Production: 24.8%

## aspartic acid-glutamic acid [DE]
[1]
  % Inhibition against PGE2 Production: 58.5%

## threonine-valine [TV]
  % Inhibition against PGE2 Production: 43.9%

## methionine-threonine [MT]
  % Inhibition against PGE2 Production: 71.2%

## tryptophan-glutamic acid [WE]
[1]
  % Inhibition against PGE2 Production: 79.9%

## glutamine-histidine [QH]
  % Inhibition against PGE2 Production: 14.8%

## alanine-leucine
[1]
  % Inhibition against PGE2 Production: 48.9%

## leucine-arginine [LR]
[1]
  % Inhibition against PGE2 Production: 52.0%

## isoleucine-proline [IP]
  % Inhibition against PGE2 Production: 59.5%

## histidine-serine [HS]
  % Inhibition against PGE2 Production: 53.2%

## aspartic acid-proline [DP]
  % Inhibition against PGE2 Production: 89.3%

## valine-histidine [VH]
  % Inhibition against PGE2 Production: 47.6%

## aspartic acid-methionine [DM]
  % Inhibition against PGE2 Production: 63.1%

## proline-phenylalanine [PF]
  % Inhibition against PGE2 Production: 32.8%

## methionine-glutamine [MQ]
  % Inhibition against PGE2 Production: 87.5%

## aspartic acid-leucine [DL]
[1]
  % Inhibition against PGE2 Production: 75.8%

## arginine-glutamic acid [RE]
[1]
  % Inhibition against PGE2 Production: 58.8%

## methionine-arginine [MR]
  % Inhibition against PGE2 Production: 36.5%

## phenylalanine-phenylalanine [FF]
[2]
  % Inhibition against PGE2 Production: 70.5%

## arginine-proline [RP]
  % Inhibition against PGE2 Production: 88.7%

## proline-arginine
  % Inhibition against PGE2 Production: 76.4%

## glutamic acid-proline [EP]
  % Inhibition against PGE2 Production: 80.8%

## tyrosine-glutamine [YQ]
  % Inhibition against PGE2 Production: 13.5%

## asparagine-alanine [NA]
[2]
  % Inhibition against PGE2 Production: 42.0%

## asparagine-proline [NP]
  % Inhibition against PGE2 Production: 70.6%

## glutamine-asparagine [QN]
[1]
  % Inhibition against PGE2 Production: 13.9%

## cysteine-asparagine [CN]
  % Inhibition against PGE2 Production: 92.0%

## arginine-leucine [RL]
[1]
  % Inhibition against PGE2 Production: 30.4%

## cysteine-glutamic acid [CE]
[1]
  % Inhibition against PGE2 Production: 54.4%

## glycine-alanine [GA]
[2]
  % Inhibition against PGE2 Production: 17.6%

## arginine-serine [RS]
[1]
  % Inhibition against PGE2 Production: 50.3%

## leucine-cysteine [LC]
[1]
  % Inhibition against PGE2 Production: 33.3%

## tyrosine-glutamic acid [YE]
  % Inhibition against PGE2 Production: 74.2%

## alanine-glutamic acid [AE]
[1]
  % Inhibition against PGE2 Production: 74.6%

## tryptophan-phenylalanine [WF]
[1]
  % Inhibition against PGE2 Production: 81.7%

## histidine-lysine [HK]
  % Inhibition against PGE2 Production: 43.8%

## tryptophan-tyrosine [WY]
[1]
  % Inhibition against PGE2 Production: 55.6%

## threonine-isoleucine [TI]
[1]
  % Inhibition against PGE2 Production: 36.3%

## valine-tyrosine [VY]
  % Inhibition against PGE2 Production: 83.2%

## glutamic acid-glutamic acid [EE]
[1]
  % Inhibition against PGE2 Production: 86.5%

## alanine-serine [AS]
[1]
  % Inhibition against PGE2 Production: 72.5%

## threonine-tryptophan [TW]
[1]
  % Inhibition against PGE2 Production: 54.8%

## lysine-cysteine [KC]
[1]
  % Inhibition against PGE2 Production: 20.2%

## tryptophan-leucine [WL]
[1]
  % Inhibition against PGE2 Production: 90.2%

## threonine-proline [TP]
  % Inhibition against PGE2 Production: 65.7%

## serine-alanine [SA]
[2]
  % Inhibition against PGE2 Production: 51.0%

## NC(=O)CC(N)C(=O)O (stereo not drawn) [NN, asparagine-asparagine]
[1]
  % Inhibition against PGE2 Production: 48.3%

## glutamic acid-glutamine [EQ]
[1]
  % Inhibition against PGE2 Production: 79.6%

## tyrosine-alanine [YA]
[2]
  % Inhibition against PGE2 Production: 80.2%

## asparagine-phenylalanine [NF]
[1]
  % Inhibition against PGE2 Production: 88.2%

## valine-isoleucine [VI]
[1]
  % Inhibition against PGE2 Production: 51.7%

## valine-phenylalanine [VF]
[1]
  % Inhibition against PGE2 Production: 12.2%

## proline-serine [PS]
  % Inhibition against PGE2 Production: 71.3%

## tyrosine-lysine [YK]
  % Inhibition against PGE2 Production: 89.9%

## valine-glutamine [VQ]
[1]
  % Inhibition against PGE2 Production: 71.2%

## valine-cysteine [VC]
  % Inhibition against PGE2 Production: 43.3%

## isoleucine-serine
[1]
  % Inhibition against PGE2 Production: 66.0%

## glutamine-glutamine [QQ]
[1]
  % Inhibition against PGE2 Production: 92.5%

## alanine-arginine
[1]
  % Inhibition against PGE2 Production: 95.7%

## phenylalanine-tyrosine [FY]
  % Inhibition against PGE2 Production: 88.0%

## asparagine-leucine [NL]
[1]
  % Inhibition against PGE2 Production: 72.6%

From patent publication US20120070392A1, “COMPOSITION FOR INHIBITING ERYTHEMA CAUSED BY ULTRAVIOLET RADIATION CONTAINING A DIPEPTIDE AS ACTIVE INGREDIENT” (priority 2009, published 2012)
